Test results published in PubChem BioAssay (NCI).
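Exposure lasted 48 hours, with cells grown in 96-well plates and compounds tested at five concentrations. At the GI50, growth is halved. TGI: total growth inhibition.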

Assays:
Assay in all cases: DTP human tumour cell line panel, 48 h
MOLT-4 leukemia = tested on: MOLT-4 leukemia
KM12 colon = tested on: KM12 colon
OVCAR-4 ovarian = tested on: OVCAR-4 ovarian
OVCAR-8 ovarian = tested on: OVCAR-8 ovarian
ACHN renal = tested on: ACHN renal
SNB-19 CNS = tested on: SNB-19 CNS
HCT-15 colon = tested on: HCT-15 colon
CAKI-1 renal = tested on: CAKI-1 renal
SF-268 CNS = tested on: SF-268 CNS
NCI/ADR-RES ovarian = tested on: NCI/ADR-RES ovarian
TK-10 renal = tested on: TK-10 renal
A498 renal = tested on: A498 renal
M14 melanoma = tested on: M14 melanoma
PC-3 prostate = tested on: PC-3 prostate
SN12C renal = tested on: SN12C renal
SF-539 CNS = tested on: SF-539 CNS
SK-MEL-2 melanoma = tested on: SK-MEL-2 melanoma
COLO 205 colon = tested on: COLO 205 colon
NCI-H460 lung = tested on: NCI-H460 lung
EKVX NSCLC = tested on: EKVX NSCLC
HOP-92 NSCLC = tested on: HOP-92 NSCLC
HS 578T breast = tested on: HS 578T breast
UO-31 renal = tested on: UO-31 renal
SK-OV-3 ovarian = tested on: SK-OV-3 ovarian
IGROV1 ovarian = tested on: IGROV1 ovarian
T-47D breast = tested on: T-47D breast
LOX IMVI melanoma = tested on: LOX IMVI melanoma
RPMI-8226 leukemia = tested on: RPMI-8226 leukemia

SMILES: O=C(Nc1nc(-c2ccc(Cl)cc2)cs1)c1cc(-c2ccc(Br)cc2)nc2ccc(Cl)cc12
- GI50 (MOLT-4 leukemia): 3.77 µM
- TGI (MOLT-4 leukemia): > 100 µM
- GI50 (KM12 colon): 3.35 µM
- TGI (KM12 colon): 27.1 µM
- GI50 (OVCAR-4 ovarian): 7.1 µM
- TGI (OVCAR-4 ovarian): > 100 µM
- GI50 (OVCAR-8 ovarian): 3.94 µM
- TGI (OVCAR-8 ovarian): 62.4 µM
- GI50 (ACHN renal): 5.18 µM
- TGI (ACHN renal): > 100 µM
- GI50 (SNB-19 CNS): 5.22 µM
- TGI (SNB-19 CNS): > 100 µM
- GI50 (HCT-15 colon): 3.12 µM
- TGI (HCT-15 colon): 26.6 µM
- GI50 (CAKI-1 renal): 20.5 µM
- TGI (CAKI-1 renal): > 100 µM
- GI50 (SF-268 CNS): 3.86 µM
- TGI (SF-268 CNS): 36.4 µM
- GI50 (NCI/ADR-RES ovarian): 3.97 µM
- TGI (NCI/ADR-RES ovarian): > 100 µM
- GI50 (TK-10 renal): 29.2 µM
- TGI (TK-10 renal): > 100 µM
- GI50 (A498 renal): 30.7 µM
- TGI (A498 renal): > 100 µM
- GI50 (M14 melanoma): 2160 nM
- TGI (M14 melanoma): 11.2 µM
- GI50 (PC-3 prostate): 4.16 µM
- TGI (PC-3 prostate): > 100 µM
- GI50 (SN12C renal): 4.78 µM
- TGI (SN12C renal): 54.6 µM
- GI50 (SF-539 CNS): 2780 nM
- TGI (SF-539 CNS): 10.4 µM
- GI50 (SK-MEL-2 melanoma): 6.69 µM
- TGI (SK-MEL-2 melanoma): > 100 µM
- GI50 (COLO 205 colon): 26.9 µM
- TGI (COLO 205 colon): > 100 µM
- GI50 (NCI-H460 lung): 32.7 µM
- TGI (NCI-H460 lung): > 100 µM
- GI50 (EKVX NSCLC): 15.3 µM
- TGI (EKVX NSCLC): > 100 µM
- GI50 (HOP-92 NSCLC): 2980 nM
- TGI (HOP-92 NSCLC): 22.2 µM
- GI50 (HS 578T breast): 2710 nM
- TGI (HS 578T breast): 18.2 µM
- GI50 (UO-31 renal): 3.45 µM
- TGI (UO-31 renal): > 100 µM
- GI50 (SK-OV-3 ovarian): 34.2 µM
- TGI (SK-OV-3 ovarian): > 100 µM
- GI50 (IGROV1 ovarian): 2700 nM
- TGI (IGROV1 ovarian): > 100 µM
- GI50 (T-47D breast): 16.1 µM
- TGI (T-47D breast): > 100 µM
- GI50 (LOX IMVI melanoma): 2770 nM
- TGI (LOX IMVI melanoma): > 100 µM
- GI50 (RPMI-8226 leukemia): 3.73 µM
- TGI (RPMI-8226 leukemia): > 100 µM
